Test results taken from PMC10544195, “Identification of novel SCD1 inhibitor alleviates nonalcoholic fatty liver disease: critical role of liver-adipose axis” (Cell Communication and Signaling : CCS, 2023).

System: T1, SCD1
T1 construct: IC50 assay and protein source not described; activity elsewhere measured in mouse OP9 and AML12 cells (native enzyme)
Assay: SCD1 inhibition, assay not described
Type: cell-based
Settings: assay system not stated

SMILES | IC50 [nM]
CNC(=O)c1cccc(NC(=O)N2CCC(Oc3ccccc3Cl)CC2)c1 [A939572] | 2800
c1cc(-c2nc3ccc(OCCCN4CCCC4)cc3o2)ccc1OCCCN1CCCC1 [E6446] | 980
